Test results reported in US20240092799A1, “MNK INHIBITORS” (Hepagene Therapeutics (HK) Limited, priority 2020, published 2024).

Target: MNK2 (Homo sapiens (Human), UniProt Q9HBH9)
Assay: MNK Biochemical Enzymatic Assay (ADP-Glo), MNK2 binding assay
Procedure: MNK Biochemical Enzymatic Assay. This protocol establishes the binding assays for MNK1 and MNK2 using ADP-Glo assay. MNK phosphorylates the substrate and converts ATP to ADP, which was detected by Envision and used to reflect the reminding activity of MNK. Reagents and equipment used in the assay are listed below, followed by the protocol.
• a) Add 50 μL compound to 384-well dilution plate • b) Dilute compound 1:3 in succession in DMSO for each column for 10+0 pts (refer to dilution plate map) • c) Transfer 0.1 μL diluted compound solution in each row to 384 assay plate using Echo, each column containing 2 replicates (refer to assay plate map) • d) Add 5 μL enzyme working solution to 384-well assay plate, centrifuge 1000 RPM for 1 min • e) Incubate at 25° C. for 15 min • f) Add 5 μL substrate working solution to initiate reaction • g) Incubate at 25° C. for 60 min • h) Add 10 μL ADP Glo reagent, centrifuge 1000 RPM for 1 min • i) Incubate at 25° C. for 60 min • j) Add 20 μL kinase detection reagent, centrifuge 1000 RPM for 1 min • k) Incubate at 25° C. for 60 min • l) Read on Envision for US LUM as RLU • m) Data analysis: IC50s were determined based on a non-linear regression analysis of data collected.

MNK2, sequence (Q9HBH9 whole entry): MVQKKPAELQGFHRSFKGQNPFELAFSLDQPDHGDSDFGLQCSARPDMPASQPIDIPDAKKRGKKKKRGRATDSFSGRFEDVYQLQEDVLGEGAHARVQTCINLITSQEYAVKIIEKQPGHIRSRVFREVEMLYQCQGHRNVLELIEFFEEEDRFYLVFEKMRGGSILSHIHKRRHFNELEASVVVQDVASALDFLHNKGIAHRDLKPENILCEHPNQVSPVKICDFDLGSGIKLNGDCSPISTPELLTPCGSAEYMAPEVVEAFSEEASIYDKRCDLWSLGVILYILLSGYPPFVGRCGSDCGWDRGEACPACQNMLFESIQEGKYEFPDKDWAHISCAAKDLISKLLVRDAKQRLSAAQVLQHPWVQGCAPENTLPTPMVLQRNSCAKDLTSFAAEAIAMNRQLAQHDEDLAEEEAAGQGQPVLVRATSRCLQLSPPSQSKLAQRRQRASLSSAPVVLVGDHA

Question: How did the IC50 turn out when `O=C1NC2(CCCCC2)c2cc(Nc3cc(N4CCCC4)ncn3)sc21` [Compound XXIII-H, 2′-((6-(Pyrrolidin-1-yl)pyrimidin-4-yl)amino)spiro[cyclohexane-1,4′-thieno[2,3-c]pyrrol]-6′(5′H)-one] was run?
Answer: > 1000 nM

Question: How did the IC50 turn out when `Cc1cc(Nc2cc3c(s2)C(=O)NC32CCCCC2)ncn1` [Compound XXIII-I, 2′-((6-Methylpyrimidin-4-yl)amino)spiro[cyclohexane-1,4′-thieno[2,3-c]pyrrol]-6′(5′H)-one] was run?
Answer: 100 to 1000 nM

Question: How did the IC50 turn out when `O=C1NC2(CCCCC2)c2cc(Nc3cc(N4CCOCC4)ncn3)sc21` [Compound XXIII-K, 2′-((6-Morpholinopyrimidin-4-yl)amino)spiro[cyclohexane-1,4′-thieno[2,3-c]pyrrol]-6′(5′H)-one] was run?
Answer: > 1000 nM

Question: How did the IC50 turn out when `O=C1NC2(CCCCC2)c2cc(Nc3cc(N4CCC(F)(F)CC4)ncn3)sc21` [Compound XXIII-L, 2′-((6-(4,4-Difluoropiperidin-1-yl)pyrimidin-4-yl)amino)spiro[cyclohexane-1,4′-thieno[2,3-c]pyrrol]-6′(5′H)-one] was run?
Answer: > 1000 nM

Question: With `CN1CCN(c2cc(Nc3cc4c(s3)C(=O)NC43CCCCC3)ncn2)CC1` [Compound XXIII-M, 2′-((6-(4-Methylpiperazin-1-yl)pyrimidin-4-yl)amino)spiro[cyclohexane-1,4′-thieno[2,3-c]pyrrol]-6′(5′H)-one] as the compound, how does the IC50 read?
Answer: > 1000 nM

Question: For `O=C1NC2(CCCCC2)c2cc(Nc3cc(Nc4ccncc4)ncn3)sc21` [Compound XXIII-O, 2′-((6-(pyridin-4-ylamino)pyrimidin-4-yl)amino)spiro[cyclohexane-1,4′-thieno[2,3-c]pyrrol]-6′(5′H)-one], which IC50 is on record?
Answer: 10 to 100 nM

Question: For `O=C1NC2(CCCCC2)c2cc(Nc3cc(NCC4CCCO4)ncn3)sc21` (centres unmarked) [Compound XXIII-Q, 2′-((6-(((tetrahydrofuran-2-yl)methyl)amino)pyrimidin-4-yl)amino)spiro[cyclohexane-1,4′-thieno[2,3-c]pyrrol]-6′(5′H)-one], which IC50 is on record?
Answer: 10 to 100 nM

Question: How did the IC50 turn out when `O=C1NC2(CCCCC2)c2cc(Nc3cc(NC4CCNC4)ncn3)sc21` (centres unmarked) [Compound XXIII-R, 2′-((6-(pyrrolidin-3-ylamino)pyrimidin-4-yl)amino)spiro[cyclohexane-1,4′-thieno[2,3-c]pyrrol]-6′(5′H)-one] was run?
Answer: 100 to 1000 nM

Question: With `Cc1cccnc1Nc1cc(Nc2cc3c(s2)C(=O)NC32CCCCC2)ncn1` [Compound XXIII-S, 2′-((6-((3-methylpyridin-2-yl)amino)pyrimidin-4-yl)amino)spiro [cyclohexane-1,4′-thieno[2,3-c]pyrrol]-6′(5′H)-one] as the compound, how does the IC50 read?
Answer: 100 to 1000 nM

Question: `O=C1NC2(CCCCC2)c2cc(Nc3cc(NC(=O)C4CCNC4)ncn3)sc21` (centres unmarked) [Compound XXIII-V, N-(6-((6′-oxo-5′,6′-dihydrospiro[cyclohexane-1,4′-thieno[2,3-c]pyrrol]-2′-yl)amino)pyrimidin-4-yl)pyrrolidine-3-carboxamide] was tested. Which IC50 did it give?
Answer: 10 to 100 nM

Question: For `COCCNc1cc(Nc2cc3c(s2)C(=O)NC32CCCCC2)ncn1` [Compound XXIII-W, 2′-((6-((2-methoxyethyl)amino)pyrimidin-4-yl)amino)spiro[cyclohexane-1,4′-thieno[2,3-c]pyrrol]-6′(5′H)-one], which IC50 is on record?
Answer: 10 to 100 nM

Question: `O=C1NC2(CCCCC2)c2cc(Nc3cc(N[C@H]4CCC[C@@H]4O)ncn3)sc21` [Compound XXIII-X, 2′-((6-(((1S,2S)-2-hydroxycyclopentyl)amino)pyrimidin-4-yl)amino)spiro[cyclohexane-1,4′-thieno[2,3-c]pyrrol]-6′(5′H)-one] was tested. Which IC50 did it give?
Answer: 10 to 100 nM

Question: For `O=C1NC2(CCCCC2)c2cc(Nc3cc(Nc4cccnc4)ncn3)sc21` [Compound XXIII-Z], which IC50 is on record?
Answer: 10 to 100 nM

Question: `O=C1NC2(CCCCC2)c2cc(Nc3cc(NCc4cccs4)ncn3)sc21` [Compound XXIV, 2′-((6-((Thiophen-2-ylmethyl)amino)pyrimidin-4-yl)amino)spiro[cyclohexane-1,4′-thieno[2,3-c]pyrrol]-6′(5′H)-one] was tested. Which IC50 did it give?
Answer: 10 to 100 nM
